{"source": "patent US20210121383A1", "about": "“COMPOSITION FOR ANTI-AGING” (MORINAGA MILK INDUSTRY CO., LTD., priority 2018, published 2021)", "test_system": "HepG2 cells derived from liver cancer", "assay": "Test 2: quantitative evaluation of autophagy activity (CYTO-ID/Hoechst 33342 fluorescence, microplate reader)", "format": "cell-based", "details": "100 μM compound 1 or compound 2, 24 hours (positive control 500 nM rapamycin, 16 hours), then 10 μM chloroquine 6 hours; 3 wells per group", "method": "The active action of autophagy of the compound 1 or the compound 2 observed in Test 1 was quantitatively detected.\nHepG2 cells derived from liver cancer in 2.5×10^4 cells were plated in a 96-well plate (manufactured by Falcon), and the culture was performed for 24 hours in DMEM containing 10% FBS under the conditions of 37° C. and a CO2 concentration of 5%. After that, the cells were cultured for 24 hours by using a medium for testing prepared in (1-1) of (1) in Test 1. Further, the culture was performed in a similar manner as in Test 1 also in the negative control and the positive control. […]\nInto each well, 100 μL of an assay buffer attached to a kit (manufactured by Enzo Life Sciences, Inc.) was added, and the fluorescence intensity was measured by using a fluorescence microplate reader, SH-9000 (manufactured by CORONA ELECTRIC Co., Ltd.). The fluorescence derived from the fluorescent probe for autophagy detection was measured under the conditions of an excitation filter of 480 nm and a fluorescence filter of 530 nm. Further, the fluorescence derived from each staining reagent was measured under the conditions of an excitation filter of 340 nm and a fluorescence filter of 480 nm.\nResults of the fluorescence intensity of the cells exposed to a compound 1 or a compound 2, which was measured by a fluorescence microplate reader, are shown in Table 1. […]"}
{"compound": "CO[C@H]1C[C@@H]2CC[C@@H](C)[C@@](O)(O2)C(=O)C(=O)N2CCCC[C@H]2C(=O)O[C@H]([C@H](C)C[C@@H]2CC[C@@H](O)[C@H](OC)C2)CC(=O)[C@H](C)/C=C(\\C)[C@@H](O)[C@@H](OC)C(=O)[C@H](C)C[C@H](C)/C=C/C=C/C=C/1C", "note": "[Positive control, rapamycin]", "values": [{"measurement": "Autophagy induction (CYTO-ID fluorescence intensity/Hoechst 33342 fluorescence intensity)", "result": 93}]}
